Test results taken from patent US10647713B2 (Nimbus Lakshmi, Inc., priority 2016, dated 2020).

What follows are compounds tested against human TYK2 (JH2domain-pseudokinase) (Homo sapiens (Human), UniProt P29597) (assay: TYK2 JH2 Domain Binding Assay (KINOMEscan, DiscoveRx)). Conditions: 11-point dilution, duplicate.
In short: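 Kd from duplicate 11-point 3-fold dilutions starting at 30,000 nM, fitted by Hill equation with slope fixed at −1. Compounds (final 0.9% DMSO) displace DNA-tagged HEK293-expressed TYK2 JH2 fusion (<0.1 nM) from ligand-coated beads over 1 h at room temperature; eluted kinase read by qPCR.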

Chain of human TYK2 (JH2domain-pseudokinase) (P29597 556-888): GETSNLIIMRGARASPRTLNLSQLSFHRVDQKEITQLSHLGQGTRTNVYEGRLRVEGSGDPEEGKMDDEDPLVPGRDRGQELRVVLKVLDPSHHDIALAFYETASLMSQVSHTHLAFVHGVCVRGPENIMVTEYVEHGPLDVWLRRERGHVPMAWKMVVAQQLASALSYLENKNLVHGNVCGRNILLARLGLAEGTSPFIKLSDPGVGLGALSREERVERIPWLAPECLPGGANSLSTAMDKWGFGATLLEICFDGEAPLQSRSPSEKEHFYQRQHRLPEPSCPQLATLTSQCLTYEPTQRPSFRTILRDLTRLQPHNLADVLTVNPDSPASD

Structure (SMILES)	Kd
CS(=O)(=O)c1cc(F)ccc1Nc1cc(Nc2cccc(C#N)n2)nc2[nH]c(C(F)F)nc12 [I-552, 6-((2-(difluoromethyl)-7-((4-fluoro-2-(methylsulfonyl)phenyl)amino)-3H-imidazo[4,5-b]pyridin-5-yl)amino)picolinonitrile]	0.1 to 0.5 nM
Cn1ccc(-c2ccc(Nc3cc(NC(=O)C4CC4)nc4[nH]c(C(F)F)nc34)c(S(C)(=O)=O)c2)n1 [I-61, N-(2-(difluoromethyl)-7-((4-(1-methyl-1H-pyrazol-3-yl)-2-(methylsulfonyl)phenyl)amino)-3H-imidazo[4,5-b]pyridin-5-yl)cyclopropanecarboxamide]	0.1 to 0.5 nM
CC1(C)CN=C(c2ccc(Nc3cc(NC(=O)C4CC4)nc4[nH]c(C(F)F)nc34)c(S(C)(=O)=O)c2)O1 [I-283, N-(2-(difluoromethyl)-7-((4-(5,5-dimethyl-4,5-dihydrooxazol-2-yl)-2-(methylsulfonyl)phenyl)amino)-3H-imidazo[4,5-b]pyridin-5-yl)cyclopropanecarboxamide]	1 to 10 nM
COc1c(Nc2cc(NC(=O)C3CC3)nc3[nH]c(C)nc23)cccc1-n1cnc(C)n1 [I-128, N-(7-((2-methoxy-3-(3-methyl-1H-1,2,4-triazol-1-yl)phenyl)amino)-2-methyl-3H-imidazo[4,5-b]pyridin-5-yl)cyclopropanecarboxamide]	1 to 10 nM
CCS(=O)(=O)N(C)c1ccccc1Nc1cc(Nc2cccc(C#N)n2)nc2[nH]c(C)nc12 [I-181, N-(2-((5-((6-cyanopyridin-2-yl)amino)-2-methyl-3H-imidazo[4,5-b]pyridin-7-yl)amino)phenyl)-N-methylethanesulfonamide]	0.1 to 0.5 nM

Continued, values first:

Kd	Structure (SMILES)
0.1 to 0.5 nM	Cc1nc2c(Nc3ccc(-c4cnn(C)c4)cc3N(C)S(C)(=O)=O)cc(NC(=O)[C@@H]3CC3(F)F)nc2[nH]1 [I-233, (S)-2,2-difluoro-N-(2-methyl-7-((4-(1-methyl-1H-pyrazol-4-yl)-2-(N-methylmethylsulfonamido)phenyl)amino)-3H-imidazo[4,5-b]pyridin-5-yl)cyclopropane-1-carboxamide]
> 10 nM	COc1c(F)cccc1Nc1cc(NC(=O)C2CC2)nc2[nH]c(C(F)F)nc12 [I-20, N-(2-(difluoromethyl)-7-((3-fluoro-2-methoxyphenyl)amino)-3H-imidazo[4,5-b]pyridin-5-yl)cyclopropanecarboxamide]
1 to 10 nM	COc1c(Nc2cc(NC(=O)C3CC3)nc3[nH]c(C(F)F)nc23)cccc1-c1nnn(C)c1C [I-155, N-(2-(difluoromethyl)-7-((3-(1,5-dimethyl-1H-1,2,3-triazol-4-yl)-2-methoxyphenyl)amino)-3H-imidazo[4,5-b]pyridin-5-yl)cyclopropanecarboxamide]
1 to 10 nM	COc1c(Nc2cc(Nc3cnc(C)c(C#N)n3)nc3[nH]c(C)nc23)cccc1-c1nnn(C)n1 [I-111, 6-((7-((2-methoxy-3-(2-methyl-2H-tetrazol-5-yl)phenyl)amino)-2-methyl-3H-imidazo[4,5-b]pyridin-5-yl)amino)-3-methylpyrazine-2-carbonitrile]
0.1 to 0.5 nM	Cc1nn(C)c(C)c1-c1ccc(Nc2cc(Nc3cccc(C#N)n3)nc3[nH]c(C(F)F)nc23)c(S(C)(=O)=O)c1 [I-347]
0.5 to 1 nM	CN(c1cc(-c2cncn2C)ccc1Nc1cc(NC(=O)C2CC2(F)F)nc2[nH]c(C(F)F)nc12)S(C)(=O)=O (stereo not drawn) [I-380, N-(2-(difluoromethyl)-7-((4-(1-methyl-1H-imidazol-5-yl)-2-(N-methylmethylsulfonamido)phenyl)amino)-3H-imidazo[4,5-b]pyridin-5-yl)-2,2-difluorocyclopropane-1-carboxamide]
0.1 to 0.5 nM	CC(C)c1ccc(Nc2cc(Nc3ccccc3S(C)(=O)=O)c3nc(C(F)F)[nH]c3n2)nc1C#N [I-489, 6-((2-(difluoromethyl)-7-((2-(methylsulfonyl)phenyl)amino)-3H-imidazo[4,5-b]pyridin-5-yl)amino)-3-isopropylpicolinonitrile]
